How the values were obtained:
Assay in all cases: relative viability (nuclei count vs DMSO), 5 days (fraction); higher = more cells survive
NCI-H1792 = test system: NCI-H1792
Outline: (§1)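 Values are medians from duplicate plates. Each reflects relative viability, defined as the nuclei count of treated wells over that of vehicle wells. Lung cancer cell lines in 1536-well plates were pin-tool dosed one day after seeding with one drug alone or with a fixed anchor-drug dose plus five library-drug doses (not always all listed) in √10 steps, then fixed, stained and imaged at 4× after 5 days.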

NCI-H2009 = test system: NCI-H2009
Outline: as §1

NCI-H2087 = test system: NCI-H2087
Outline: as §1

NCI-H2170 = test system: NCI-H2170
Outline: as §1

NCI-H2228 = test system: NCI-H2228
Outline: as §1

NCI-H2342 = test system: NCI-H2342
Outline: as §1

NCI-H2405 = test system: NCI-H2405
Outline: as §1

NCI-H596 = test system: NCI-H596
Outline: as §1

NCI-H647 = test system: NCI-H647
Outline: as §1

NCI-H661 = test system: NCI-H661
Outline: as §1

SK-LU-1 = test system: SK-LU-1
Outline: as §1

SK-MES-1 = test system: SK-MES-1
Outline: as §1

Work on `Clc1ccc(Nc2nnc(Cc3ccncc3)c3ccccc23)cc1` [Vatalanib] + Cc1nc(Nc2ncc(C(=O)Nc3c(C)cccc3Cl)s2)cc(N2CCN(CCO)CC2)n1 [Dasatinib] (partner 0.075 µM) yielded a relative viability (NCI-H1792; first compound 1.265 µM) of 0.811, a relative viability (NCI-H1792; first compound 4 µM) of 0.759 and a relative viability (NCI-H2009; first compound 0.04 µM) of 0.288. It also gave a relative viability (NCI-H2009; first compound 0.1265 µM) of 0.256, a relative viability (NCI-H2009; first compound 0.4 µM) of 0.35 and a relative viability (NCI-H2009; first compound 1.265 µM) of 0.303. The relative viability (NCI-H2009; first compound 4 µM) was 0.283, the relative viability (NCI-H2087; first compound 0.04 µM) was 0.937 and the relative viability (NCI-H2087; first compound 0.1265 µM) was 0.769. For the same compound, the relative viability (NCI-H2087; first compound 0.4 µM) was 1.09, the relative viability (NCI-H2087; first compound 1.265 µM) was 0.808 and the relative viability (NCI-H2087; first compound 4 µM) was 0.884. For the same compound, the relative viability (NCI-H2170; first compound 0.04 µM) was 0.521, the relative viability (NCI-H2170; first compound 0.1265 µM) was 0.486 and the relative viability (NCI-H2170; first compound 0.4 µM) was 0.556. The relative viability (NCI-H2170; first compound 1.265 µM) was 0.483, the relative viability (NCI-H2170; first compound 4 µM) was 0.507 and the relative viability (NCI-H2228; first compound 0.04 µM) was 0.494. The relative viability (NCI-H2228; first compound 0.1265 µM) was 0.483, the relative viability (NCI-H2228; first compound 0.4 µM) was 0.595 and the relative viability (NCI-H2228; first compound 1.265 µM) was 0.482. It also gave a relative viability (NCI-H2228; first compound 4 µM) of 0.447, a relative viability (NCI-H2342; first compound 0.04 µM) of 0.292 and a relative viability (NCI-H2342; first compound 0.1265 µM) of 0.324. It also gave a relative viability (NCI-H2342; first compound 0.4 µM) of 0.278, a relative viability (NCI-H2342; first compound 1.265 µM) of 0.312 and a relative viability (NCI-H2342; first compound 4 µM) of 0.295. For the same compound, the relative viability (NCI-H2405; first compound 0.04 µM) was 0.226, the relative viability (NCI-H2405; first compound 0.1265 µM) was 0.195 and the relative viability (NCI-H2405; first compound 1.265 µM) was 0.197. For the same compound, the relative viability (NCI-H2405; first compound 4 µM) was 0.203, the relative viability (NCI-H596; first compound 0.04 µM) was 0.643 and the relative viability (NCI-H596; first compound 0.1265 µM) was 0.652. The relative viability (NCI-H596; first compound 0.4 µM) was 0.637, the relative viability (NCI-H596; first compound 1.265 µM) was 0.518 and the relative viability (NCI-H596; first compound 4 µM) was 0.592. The relative viability (NCI-H647; first compound 0.04 µM) was 0.205, the relative viability (NCI-H647; first compound 0.1265 µM) was 0.184 and the relative viability (NCI-H647; first compound 0.4 µM) was 0.212. It also gave a relative viability (NCI-H647; first compound 1.265 µM) of 0.191, a relative viability (NCI-H647; first compound 4 µM) of 0.148 and a relative viability (NCI-H661; first compound 0.04 µM) of 0.935. For the same compound, the relative viability (NCI-H661; first compound 0.1265 µM) was 0.854, the relative viability (NCI-H661; first compound 0.4 µM) was 1.06 and the relative viability (NCI-H661; first compound 1.265 µM) was 0.853. The relative viability (NCI-H661; first compound 4 µM) was 0.804, the relative viability (SK-LU-1; first compound 0.04 µM) was 0.182 and the relative viability (SK-LU-1; first compound 0.1265 µM) was 0.188. The relative viability (SK-LU-1; first compound 0.4 µM) was 0.208, the relative viability (SK-LU-1; first compound 1.265 µM) was 0.184 and the relative viability (SK-LU-1; first compound 4 µM) was 0.178. For the same compound, the relative viability (SK-MES-1; first compound 0.04 µM) was 0.346, the relative viability (SK-MES-1; first compound 0.1265 µM) was 0.439 and the relative viability (SK-MES-1; first compound 0.4 µM) was 0.32. The relative viability (SK-MES-1; first compound 1.265 µM) was 0.348 and the relative viability (SK-MES-1; first compound 4 µM) was 0.34.

— the supplement of paper PMC10307832
